Values of other authors in patent US9636319B1, “Fumarate ester dosage forms” (priority 2015, dated 2017).
Structures can show the parent of a compound that is named as a salt.

Assays:
[1] = tested on: Human plasma protein; conditions: independent of concentration
[2] = tested on: Nuclear factor (erythroid-derived 2)-like 2 (Nrf2) pathway; conditions: in vitro and in vivo in animals and humans

SMILES	Human plasma protein binding [1]	Tmax without meal (MMF in plasma, before the delay by a meal) [h]	Tmax with meal (MMF in plasma, high-fat, high-calorie meal) [h]	median Tmax of MMF ([…]) [h]	dose dependence of Cmax and AUCoverall (dose range 120 mg to 360 mg)	reduction in the incidence of flushing (fed / postprandial state)	effect of a meal on AUC (high-fat, high-calorie meal)	decrease of Cmax by a meal (high-fat, high-calorie meal, MMF in plasma) [%]	circulating MMF at 24 hours (human, in vivo)	terminal half-life (human, in vivo)	involvement of the cytochrome P450 (CYP) system in metabolism (metabolism through the tricarboxylic acid (TCA) cycle)	Nrf2 pathway activation [2]	quantifiability in plasma following oral administration (human, in vivo, po)
COC(=O)/C=C/C(=O)O [MMF, monomethyl fumarate]	27-45%	2.0	5.5	2 to 2.5	increased approximately dose proportionally	approximately 25%	did not affect	40	no circulating MMF is present at 24 hours in the majority of individuals	approximately 1 hour	no involvement	–	–
COC(=O)/C=C/C(=O)OC [DMF, dimethyl fumarate]	–	–	–	–	–	–	–	–	–	–	–	activate	not quantifiable
